Like-named read-outs stand apart in the source and are kept apart here.
Experiment: Clinical food-effect study: pharmacokinetics of a 100 mg tasimelteon capsule with or without a high-fat/high-calorie meal
Type: in vivo, human
Details: for Cmax / Tmax: human, in vivo, po
Protocol: A clinical study was undertaken to investigate the effects of food on administration of tasimelteon. Specifically, the primary objective of the study was to investigate the influence of food (high-calorie/high-fat) on the pharmacokinetics of 100 mg of tasimelteon in healthy subjects. This was a single-center, open-label, crossover design which lasted up to 5 weeks. 26 Healthy male and female subjects (18-50 years old) were enrolled in the study. There was a 2-period, randomized, 2-sequence crossover design where each subject received 100 mg tasimelteon either with or without food. Subjects were randomly assigned to receive a 100 mg tasimelteon capsule under fasted conditions or a 100 mg tasimelteon capsule under fed conditions (i.e., 30 minutes after beginning to ingest a high-fat meal). There was a 7-day washout between treatment groups. FIG. 1 depicts an example of the overall study design. In FIG. 1, tasimelteon is referred to as VEC-162.
For purposes of the study depicted in FIG. 1, administration under fasted conditions was administration with 240 mL of water at approximately 6:00 AM, after at least a 10-hour fast. Subjects were not allowed to eat any food for at least 4 hours postdose. Subjects were allowed to drink water as desired except 1 hour before and 2 hours after drug administration.
Administration under fed conditions was administration with 240 mL of water at approximately 6:00 AM, after a high-fat/high=calorie breakfast, which included one cup of milk. Subjects began the recommended meal 30 minutes prior to drug administration. Subjects finished eating the meal in 30 minutes or less and the drug was administered approximately 30 minutes after the start of the meal. Subjects were not allowed to eat any food for at least 4 hours postdose. Subjects were allowed to drink water as desired except 1 hour before and 2 hours after drug administration.
25 Subjects completed both periods of the study.

[1] = fed vs fasted, 100 mg oral, 90% CI within 80% to 125%
[2] = with a high-fat/high calorie meal vs fasted

Cmax lower than when given in a fasted state (administered with a high-fat meal, illustrative prescribing information language): 44% | Cmax (both sexes, 100 mg, healthy subjects, 100 mg oral capsule, fasted conditions): 786 ng/mL | Cmax (both sexes, 100 mg, healthy subjects, 100 mg oral capsule, fed conditions (high-fat/high-calorie meal)): 445 ng/mL | Tmax (both sexes, 100 mg, healthy subjects, 100 mg oral capsule, fed conditions (high-fat/high-calorie meal), read-out: median Tmax): 2.5 h | AUC(0-t) geometric mean ratio [1]: 108.57% | AUC(Inf) geometric mean ratio [1]: 106.54% | Cmax geometric mean ratio (fed vs fasted, 100 mg oral, 90% confidence interval 49.72% to 62.67%): 55.82% | Tmax (after fasted oral administration, illustrative prescribing information language, read-out: peak concentration (Tmax)): 0.5 to 3 h | extent of absorption [2]: no significant change | rate of absorption [2]: significant decrease
Structure (SMILES): CCC(=O)NC[C@@H]1C[C@H]1c1cccc2c1CCO2 [tasimelteon]

From US10376487B2, “Method of treatment” (Vanda Pharmaceuticals, Inc., priority 2013, dated 2019)
